In experiment [1] the test system is CARP-1, phospho-JNK1/2, phospho-H2AX, PARP. Put plainly: Western blot of CARP-1, phospho-JNK1/2, γH2AX, cleaved PARP in MDA-MB-468. The experiment is classed as cell-based, human. A general note: In western blotting, separated proteins are transferred to a membrane and probed.
For experiment [2], the system named is MDA-MB-231 HBC cells. The settings on record: MDA-MB-231, compared with untreated counterparts; ref [34]; cited from earlier work.
For experiment [3], the system named is DBC1 (CCAR2). Kind of experiment: Co-immunoprecipitation with Dbc1 (CCAR2). The experiment is classed as cell-based. The settings on record: Dbc1-expressing PT67 (NIH3T3 murine fibroblast subline) cells, anti-Flag IP. As to the method:
(Clontech) were first transfected with recombinant PLNCX2/Flag-Dbc1 plasmid (10), and stable, neomycin-resistant sublines were generated and characterized for Dbc1 expression essentially as described by us before (5; [35]). The Dbc1 expressing PT67 cells were then separately transfected with pcDNA3 vector, pcDNA3-Gst, pcDNA3-Gst-H2AX, pcDNA3-EGFP, or pcDNA3-EGFP-H2AX (1–35) plasmids. Approximately 1mg of cell lysate from each of transfected, Dbc1-expressing, PT67 cells was subjected to immunoprecipitation using anti-Flag tag M2 antibodies (F1804, Sigma). The immunoprecipitates were then analyzed by WB by probing the membrane with anti-Gst (top autoradiograph), anti-p53 D2H90 rodent specific rabbit mAb (32532S; Cell Signaling; 2nd autoradiograph from top), or anti-Fag tag (for Dbc1) antibodies (3rd autoradiograph from top). The membranes containing […] of respective cell lysates (marked as whole cell lysates) were subsequently probed with anti-Gst tag (Bottom left autoradiograph) or anti-EGFP antibodies (Bottom right autoradiograph) to ascertain expression of transfected, Gst, Gst-tagged H2AX proteins, EGFP, and EGFP-H2AX (1–35) proteins. The presence of respective proteins is indicated by an arrowhead on the left side of each blot. Approximate location of various molecular weight markers is indicated on the right side of each blot. kDa, kilodalton.
© 2019 by the authors. […]

Experiment [4] deals with Gst-H2AX. Put plainly: Gst-pulldown with Gst-H2AX. The format is binding, human. The conditions noted are these: E. coli-expressed, 4 °C, 2 h, WB anti-HA, Figure 5A. Here is the method:
(§1) Logarithmically growing cells were either untreated or treated with different agents for various time periods. The cells were lysed to prepare protein extracts. IP was carried out by incubating approximately 1 mg of the protein lysate with appropriate antibodies. The immunoprecipitates were then analyzed by SDS-PAGE, followed by WB with respective, interacting protein. For Gst-pulldown, Gst-H2AX or various His-TAT-HA-tagged CARP-1 peptides were generated in Escherichia coli (E. coli) BL21 cells essentially as described by us previously. Briefly, the competent E. coli BL-21 (DE3) pLysS cells were transformed separately with various recombinant pGEX-4T-1 or pTAT-HA constructs. The transformed cells were then subjected to selection by combined presence of ampicillin and chloramphenicol; various isolates for each transformation were obtained and bacterial lysates were characterized for expression of fusion peptides. Cells from each isolate were grown in 4 mL of LB medium containing ampicillin only until the optical density (OD)600 reached 0.4–0.8. Expression of fusion peptides was induced over 2–4 h incubation periods after Isopropyl β-D-1-thiogalactopyranoside (IPTG) addition. The cells were harvested, and pellets were stored at −80 °C overnight. […]

Experiment [5] concerns Gst-H2AX (1–35). Put plainly: Gst-pulldown with Gst-H2AX (1–35). The conditions noted are these: E. coli-expressed, 4 °C, 2 h, WB anti-HA, Figure 5B. The experiment is classed as binding, human. Here is the method: as §1
In experiment [6] the target is T1, H2AX (1–35) peptide (Homo sapiens, UniProt P16104).
T1 construct: CARP-1 (636–650) and H2AX (1–35) peptides, each with ≥90% purity, were commercially synthesized; purchased
Put plainly: Surface plasmon resonance, CARP-1 peptide with H2AX (1–35) peptide. The format is binding. The conditions noted are these: SPR, PBST pH 7.4, 25 °C, 1:1 global fit. As to the method: Affinity purification of the Gst-tagged or His-tagged fusion proteins was carried out essentially following procedure previously described by us. Briefly, the bacteria expressing respective fusion protein were cultured in 500 mL of LB medium containing ampicillin until the OD600 reached 0.4–0.6. Protein expression was induced by addition of IPTG over an additional 2–4-h incubation at 37 °C. Cells were harvested, and pellets were stored overnight at −80 °C, and lysed in 4–5 mL of BPER lysis buffer containing DNAse I as detailed above. […] Fractions containing eluted fusion protein were pooled, and dialyzed overnight at 4 °C in 1–2 L of 1× Tris-buffered saline (BioRad, Hercules, CA, USA) with multiple buffer changes. Following measurement of protein concentration, the purified protein was aliquoted and snap-frozen in liquid N2 for storage. […]
Next, kinetics of CARP-1 binding with H2AX were determined by surface plasmon resonance (SPR) technology (Profacgen, Shirley, NY, USA). […] The signal changes after binding and washing (in AU) were recorded as the assay value. Selected protein-grafted regions in the SPR images were analyzed, and the average reflectivity variations of the chosen areas were plotted as a function of time. Real-time binding signals were recorded and analyzed using a data analysis module (DAM) obtained from Plexera Bioscience (Seattle, WA, USA). […]
On the technique in general: In SPR one partner is held on a chip, and binding of the other changes the refractive index at the surface.

No end group written: not given here.

For `Cc1cc(NC(=O)c2cccc(NC(=O)/C=C/CN(C)C)c2)ccc1Nc1nccc(-c2cccnc2)n1` [JNK-IN-8], the JNK activation entry in experiment [1] (MDA-MB-468, 5 μM JNK-IN-8, WB) was “total loss of JNK activation”. For the same molecule, the “levels of CARP-1” value in experiment [1] (MDA-MB-468, combination of JNK-IN-8 (5 μM) with Adriamycin, WB) was “elevated levels of CARP-1”; in experiment [1] (MDA-MB-468, single agent (JNK-IN-8 at 5 μM), WB) it was “elevated levels of CARP-1”. The γH2AX result in experiment [1] (MDA-MB-468, combined presence of JNK-IN-8 (5 μM) and Adriamycin, WB) was “reduced levels of γH2AX”. The viabilities entry in experiment [2] was “significantly reduced viabilities”.

On to “H2AX (1–35): commercially synthesized H2AX (1–35) peptide; epitope of H2AX (tested as EGFP-tagged protein) (MSGRGKTGGKARAKAKSRSSRAGLQFPVGRVHRLL; UniProt P16104 1-35, looked up, fragment)”, for which the “interaction with DBC1” value in experiment [3] is listed as “does not interact”.

On to “His-TAT-HA-CARP-1 (631–660): E. coli-expressed His-TAT-HA-tagged CARP-1 peptide (WSKLDPKTMKVNDLRKELESRALSSKGLKS; also: His, TAT and HA tags kept, end not given here)”, for which, in experiment [4], the “binding with Gst-H2AX protein” value was “bound with Gst-H2AX protein”. In addition, the “binding with Gst-H2AX (1–35)” value in experiment [5] was “bound with Gst-H2AX and Gst-H2AX (1–35) proteins”.

As to “WSKLDPKTMKVNDLRKELESRALSSKGLKS [CARP-1 (631–660)]”, in experiment [6] (read-out: Ka (association rate constant)), the kon was found to be 2320 M⁻¹ s⁻¹. The koff in experiment [6] (read-out: Kd (dissociation rate constant)) was determined as 0.000292 s⁻¹.

These data come from paper PMC6406907, “A H2AX–CARP-1 Interaction Regulates Apoptosis Signaling Following DNA Damage” (Cancers, 2019).
